# Results: ChEMBL document CHEMBL4011590, “Structure-activity relationship studies on 3,5-dinitrophenyl tetrazoles as antitubercular agents” (Eur J Med Chem, 2017)
# Columns and labels:
# [1] = test system: Mycobacterium tuberculosis; assay: Antimycobacterial activity against Mycobacterium tuberculosis H37Rv CNCTC My 331/88 after 14 days by micromethod; assay type: functional; details: H37Rv CNCTC My 331/88, 336 h
# [2] = test system: Mycobacterium tuberculosis; assay: Antimycobacterial activity against Mycobacterium tuberculosis H37Rv CNCTC My 331/88 after 21 days by micromethod; assay type: functional; details: H37Rv CNCTC My 331/88, 504 h
# [3] = test system: Mycobacterium avium; assay: Antimycobacterial activity against Mycobacterium avium CNCTC My 330/80 after 14 days by micromethod; assay type: functional; details: CNCTC My 330/80, 336 h
# [4] = test system: Mycobacterium avium; assay: Antimycobacterial activity against Mycobacterium avium CNCTC My 330/80 after 21 days by micromethod; assay type: functional; details: CNCTC My 330/80, 504 h
# [5] = test system: Mycobacterium kansasii; assay: Antimycobacterial activity against Mycobacterium kansasii CNCTC My 235/80 after 7 days by micromethod; assay type: functional; details: CNCTC My 235/80, 168 h
# [6] = test system: Mycobacterium kansasii; assay: Antimycobacterial activity against Mycobacterium kansasii CNCTC My 235/80 after 14 days by micromethod; assay type: functional; details: CNCTC My 235/80, 336 h
# [7] = test system: Mycobacterium kansasii; assay: Antimycobacterial activity against Mycobacterium kansasii CNCTC My 235/80 after 21 days by micromethod; assay type: functional; details: CNCTC My 235/80, 504 h
# [8] = test system: Mycobacterium kansasii; assay: Antimycobacterial activity against Mycobacterium kansasii isolate 6509/96 after 7 days by micromethod; assay type: functional; details: isolate 6509/96, 168 h
# [9] = test system: Mycobacterium kansasii; assay: Antimycobacterial activity against Mycobacterium kansasii isolate 6509/96 after 14 days by micromethod; assay type: functional; details: isolate 6509/96, 336 h
# [10] = test system: Mycobacterium kansasii; assay: Antimycobacterial activity against Mycobacterium kansasii isolate 6509/96 after 21 days by micromethod; assay type: functional; details: isolate 6509/96, 504 h
# [11] = test system: CHO-K1; assay: Cytotoxicity against CHOK1 cells after 24 hrs by MTT assay; assay type: cell-based; details: Cricetulus griseus, CHO-K1, 24 h
# [12] = test system: Staphylococcus aureus; assay: Antibacterial activity against Staphylococcus aureus ATCC 6538 after 24 hrs by broth microdilution method; assay type: functional; details: ATCC 6538, 24 h
# [13] = test system: Staphylococcus aureus; assay: Antibacterial activity against Staphylococcus aureus ATCC 6538 after 48 hrs by broth microdilution method; assay type: functional; details: ATCC 6538, 48 h
# [14] = test system: Staphylococcus aureus; assay: Antibacterial activity against methicillin-resistant Staphylococcus aureus HK5996/08 after 24 hrs by broth microdilution method; assay type: functional; details: HK5996/08, 24 h
# [15] = test system: Staphylococcus aureus; assay: Antibacterial activity against methicillin-resistant Staphylococcus aureus HK5996/08 after 48 hrs by broth microdilution method; assay type: functional; details: HK5996/08, 48 h
# [16] = test system: Staphylococcus epidermidis; assay: Antibacterial activity against Staphylococcus epidermidis HK6966/08 after 24 hrs by broth microdilution method; assay type: functional; details: HK6966/08, 24 h
# [17] = test system: Staphylococcus epidermidis; assay: Antibacterial activity against Staphylococcus epidermidis HK6966/08 after 48 hrs by broth microdilution method; assay type: functional; details: HK6966/08, 48 h
# [18] = test system: Enterococcus sp.; assay: Antibacterial activity against Enterococcus sp. HK14365/08 after 24 hrs by broth microdilution method; assay type: functional; details: HK14365/08, 24 h
# [19] = test system: Enterococcus sp.; assay: Antibacterial activity against Enterococcus sp. HK14365/08 after 48 hrs by broth microdilution method; assay type: functional; details: HK14365/08, 48 h
# [20] = test system: Escherichia coli; assay: Antibacterial activity against Escherichia coli ATCC 8739 after 24 hrs by broth microdilution method; assay type: functional; details: ATCC 8739, 24 h
# [21] = test system: Escherichia coli; assay: Antibacterial activity against Escherichia coli ATCC 8739 after 48 hrs by broth microdilution method; assay type: functional; details: ATCC 8739, 48 h
# [22] = test system: Klebsiella pneumoniae; assay: Antibacterial activity against Klebsiella pneumoniae HK11750/08 after 24 hrs by broth microdilution method; assay type: functional; details: HK11750/08, 24 h
# [23] = test system: Klebsiella pneumoniae; assay: Antibacterial activity against Klebsiella pneumoniae HK11750/08 after 48 hrs by broth microdilution method; assay type: functional; details: HK11750/08, 48 h
# [24] = test system: Klebsiella pneumoniae; assay: Antibacterial activity against extended spectrum beta-lactamase producing Klebsiella pneumoniae HK14368/08 after 24 hrs by broth microdilution method; assay type: functional; details: HK14368/08, 24 h
# [25] = test system: Klebsiella pneumoniae; assay: Antibacterial activity against extended spectrum beta-lactamase producing Klebsiella pneumoniae HK14368/08 after 48 hrs by broth microdilution method; assay type: functional; details: HK14368/08, 48 h
# [26] = test system: Pseudomonas aeruginosa; assay: Antibacterial activity against Pseudomonas aeruginosa ATCC 9027 after 24 hrs by broth microdilution method; assay type: functional; details: ATCC 9027, 24 h
# [27] = test system: Pseudomonas aeruginosa; assay: Antibacterial activity against Pseudomonas aeruginosa ATCC 9027 after 48 hrs by broth microdilution method; assay type: functional; details: ATCC 9027, 48 h
# [28] = test system: Candida albicans; assay: Antifungal activity against Candida albicans ATCC 44859 after 24 hrs by broth microdilution method; assay type: functional; details: ATCC 44859, 24 h
# [29] = test system: Candida albicans; assay: Antifungal activity against Candida albicans ATCC 44859 after 48 hrs by broth microdilution method; assay type: functional; details: ATCC 44859, 48 h
# [30] = test system: Candida tropicalis; assay: Antifungal activity against Candida tropicalis 156 after 24 hrs by broth microdilution method; assay type: functional; details: Candida tropicalis, 156, 24 h
# [31] = test system: Candida tropicalis; assay: Antifungal activity against Candida tropicalis 156 after 48 hrs by broth microdilution method; assay type: functional; details: Candida tropicalis, 156, 48 h
# [32] = test system: Pichia kudriavzevii; assay: Antifungal activity against Candida krusei E28 after 24 hrs by broth microdilution method; assay type: functional; details: E28, 24 h
# [33] = test system: Pichia kudriavzevii; assay: Antifungal activity against Candida krusei E28 after 48 hrs by broth microdilution method; assay type: functional; details: E28, 48 h
# [34] = test system: Nakaseomyces glabratus; assay: Antifungal activity against Candida glabrata 20/I after 24 hrs by broth microdilution method; assay type: functional
# [35] = test system: Nakaseomyces glabratus; assay: Antifungal activity against Candida glabrata 20/I after 48 hrs by broth microdilution method; assay type: functional
# [36] = test system: Trichosporon asahii; assay: Antifungal activity against Trichosporon asahii 1188 after 24 hrs by broth microdilution method; assay type: functional; details: Trichosporon asahii, 1188, 24 h
# [37] = test system: Trichosporon asahii; assay: Antifungal activity against Trichosporon asahii 1188 after 48 hrs by broth microdilution method; assay type: functional; details: Trichosporon asahii, 1188, 48 h
# [38] = test system: Aspergillus fumigatus; assay: Antifungal activity against Aspergillus fumigatus 231 after 24 hrs by broth microdilution method; assay type: functional; details: Aspergillus fumigatus, 231, 24 h
# [39] = test system: Aspergillus fumigatus; assay: Antifungal activity against Aspergillus fumigatus 231 after 48 hrs by broth microdilution method; assay type: functional; details: Aspergillus fumigatus, 231, 48 h
# [40] = test system: Lichtheimia corymbifera; assay: Antifungal activity against Absidia corymbifera 272 after 24 hrs by broth microdilution method; assay type: functional; details: Lichtheimia corymbifera, 272, 24 h
# [41] = test system: Lichtheimia corymbifera; assay: Antifungal activity against Absidia corymbifera 272 after 48 hrs by broth microdilution method; assay type: functional; details: Lichtheimia corymbifera, 272, 48 h
# [42] = test system: Trichophyton mentagrophytes; assay: Antifungal activity against Trichophyton mentagrophytes 445 after 72 hrs by broth microdilution method; assay type: functional; details: Trichophyton mentagrophytes, 445, 72 h
# [43] = test system: Trichophyton mentagrophytes; assay: Antifungal activity against Trichophyton mentagrophytes 445 after 120 hrs by broth microdilution method; assay type: functional; details: Trichophyton mentagrophytes, 445, 120 h
smiles,measurement,setting,value
O=[N+]([O-])c1cc(-c2nnn(Cc3ccc(Br)cc3)n2)cc([N+](=O)[O-])c1,MIC99,[1],0.25 µM
same,MIC99,[2],0.25 µM
same,MIC99,[3],4 µM
same,MIC99,[4],8 µM
same,MIC99,[5],0.25 µM
same,MIC99,[6],1 µM
same,MIC99,[7],1 µM
same,MIC99,[8],0.25 µM
same,MIC99,[9],1 µM
same,MIC99,[10],1 µM
same,IC50,[11],55 µM
same,MIC,[12],62.5 µM
same,MIC,[13],62.5 µM
same,MIC,[14],> 125 µM
same,MIC,[15],> 125 µM
same,MIC,[16],31.2 µM
same,MIC,[17],31.2 µM
same,MIC,[18],> 125 µM
same,MIC,[19],> 125 µM
same,MIC,[20],> 125 µM
same,MIC,[21],> 125 µM
same,MIC,[22],> 125 µM
same,MIC,[23],> 125 µM
same,MIC,[24],> 125 µM
same,MIC,[25],> 125 µM
same,MIC,[26],> 125 µM
same,MIC,[27],> 125 µM
same,MIC,[28],> 500 µM
same,MIC,[29],> 500 µM
same,MIC,[30],> 500 µM
same,MIC,[31],> 500 µM
same,MIC,[32],> 500 µM
same,MIC,[33],> 500 µM
same,MIC,[34],> 500 µM
same,MIC,[35],> 500 µM
same,MIC,[36],> 500 µM
same,MIC,[37],> 500 µM
same,MIC,[38],> 500 µM
same,MIC,[39],> 500 µM
same,MIC,[40],> 500 µM
same,MIC,[41],> 500 µM
same,MIC,[42],> 500 µM
same,MIC,[43],> 500 µM
